What follows are compounds tested against human mGluR7 (Homo sapiens (Human), UniProt Q14831) (assay: Inositol monophosphate production assay (IP1 assay), inhibition of L-AP4 response). Conditions: mean IC50 from at least two independent experiments; HEK293 cells transiently transfected with mGluR7, Gqtop and EAAC1; IP1 production vs EC80 L-AP4.
Sequence of human mGluR7 (Q14831 35-915): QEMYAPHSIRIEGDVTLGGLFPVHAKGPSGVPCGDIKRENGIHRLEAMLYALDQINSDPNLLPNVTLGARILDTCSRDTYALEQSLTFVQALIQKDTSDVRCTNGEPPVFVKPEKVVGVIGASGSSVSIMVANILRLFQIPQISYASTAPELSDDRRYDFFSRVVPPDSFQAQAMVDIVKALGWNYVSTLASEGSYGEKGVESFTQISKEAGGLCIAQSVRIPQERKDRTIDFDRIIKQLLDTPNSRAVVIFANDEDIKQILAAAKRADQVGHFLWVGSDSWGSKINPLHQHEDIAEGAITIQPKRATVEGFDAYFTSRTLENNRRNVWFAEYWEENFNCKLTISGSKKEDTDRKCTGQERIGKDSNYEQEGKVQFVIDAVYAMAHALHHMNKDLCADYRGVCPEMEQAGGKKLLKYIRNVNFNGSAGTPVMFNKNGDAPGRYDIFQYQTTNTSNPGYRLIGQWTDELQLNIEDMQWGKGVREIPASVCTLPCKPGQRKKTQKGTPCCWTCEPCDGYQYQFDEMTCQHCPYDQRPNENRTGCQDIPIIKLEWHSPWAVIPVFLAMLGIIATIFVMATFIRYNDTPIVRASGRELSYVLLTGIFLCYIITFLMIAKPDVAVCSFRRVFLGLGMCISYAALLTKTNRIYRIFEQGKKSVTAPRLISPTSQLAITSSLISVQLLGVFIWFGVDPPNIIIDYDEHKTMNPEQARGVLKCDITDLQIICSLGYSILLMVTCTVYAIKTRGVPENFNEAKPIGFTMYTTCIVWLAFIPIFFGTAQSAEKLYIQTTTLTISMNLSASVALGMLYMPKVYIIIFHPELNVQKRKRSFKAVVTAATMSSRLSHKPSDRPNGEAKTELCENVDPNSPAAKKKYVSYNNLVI
Type: cell-based
Text: Inositol Monophosphate Production Assay (IP1 Assay):
HEK293 cells were transiently transfected with mGluR7 by electroporation and seeded in a poly-ornithine coated 96-well plate at the density of 150 000 cells/well. To allow the monitoring of receptor activity through measurements of inositol monophosphate (IP1) production, mGluR7 was transfected with a chimeric Gq/Gi protein (Gqtop). and was also co-transfected with EAAC1, a glutamate transporter, to avoid influence of extracellular glutamate. Cells were cultured in Dulbecco's Modified Eagle Medium (DMEM, Invitrogen, Cergy Pontoise, France), supplemented with 10% of Fetal Bovine Serum (FBS). Medium was changed by Glutamax™ (Invitrogen, Cergy Pontoise, France) to reduce extracellular glutamate concentration 3 hours before stimulation
IP1 production was determined using the IP-One HTRF kit (CisBio Bioassays), a competitive immunoassay using cryptate-labeled anti-IP1 antibody and d2-labeled IP, according to the manufacturer's recommendations. All points were realized in triplicate.
Data were analyzed with Prism 6 software (GraphPadSoftware, San Diego, Calif.). Typically, in each experiment, a four-parameter concentration-response curve equation was used to fit data and potency (IC50) is estimated as logarithms (log IC50). Data were calculated as % of the control mGluR7 agonist L-AP4 response, defined as the response that is generated upon addition of an EC80-equivalent concentration of L-AP4.
The Table 2 below represents the mean IC50 obtained from at least two independent experiments.
With `O=c1c2c(cnn1-c1ncccn1)CC(c1cccc3c1ccn3C1CC1)CC2` (centres unmarked) [Example 124, 6-(1-cyclopropyl-1H-indol-4-yl)-2-(pyrimidin-2-yl)-5,6,7,8-tetrahydrophthalazin-1(2H)-one] the IC50 was < 500 nM. `COc1cccc(C2CCc3c(cnn(-c4ncc(C)cn4)c3=O)C2)c1Cl` (single isomer, unassigned; (+)) [Example 135, (+)-6-(2-chloro-3-methoxyphenyl)-2-(5-methylpyrimidin-2-yl)-5,6,7,8-tetrahydrophthalazin-1(2H)-one] showed an IC50 of 500 to 1000 nM. With `COc1ccccc1C1CCc2c(cnn(-c3ccccn3)c2=O)C1` (centres unmarked) [Example 58, 6-(2-methoxyphenyl)-2-(pyridin-2-yl)-5,6,7,8-tetrahydrophthalazin-1(2H)-one] the IC50 was < 500 nM. For `O=c1c2c(cnn1-c1ncccn1)CC(c1cccc(OC3CCCC3)c1)CC2` (centres unmarked) [Example 86, 6-(3-(cyclopentyloxy)phenyl)-2-(pyrimidin-2-yl)-5,6,7,8-tetrahydrophthalazin-1(2H)-one], the IC50 was 500 to 1000 nM. `Cc1ccc(C2CCc3c(cnn(-c4ncccc4C#N)c3=O)C2)c(C)c1` (centres unmarked) [Example 24, 2-(6-(2,4-dimethylphenyl)-1-oxo-5,6,7,8-tetrahydrophthalazin-2(1H)-yl)nicotinonitrile] was tested, and the IC50 was < 500 nM. `Cc1ccc(C2CCc3c(cnn(-c4cc(F)ccn4)c3=O)C2)c(C)c1` (centres unmarked) [Example 11, 6-(2,4-dimethylphenyl)-2-(4-fluoropyridin-2-yl)-5,6,7,8-tetrahydrophthalazin-1(2H)-one] was tested, and the IC50 was < 500 nM. For `O=c1c2c(cnn1-c1ncccn1)CC(c1cccc(OC3CC3)c1Cl)CC2` (single isomer, unassigned; (-)) [Example 130, (−)-6-(2-chloro-3-cyclopropoxyphenyl)-2-(pyrimidin-2-yl)-5,6,7,8-tetrahydrophthalazin-1(2H)-one], the IC50 was < 500 nM. For `COc1cnc(-n2ncc3c(c2=O)CCC(c2ccc(C)cc2C)C3)nc1` (centres unmarked) [Example 53, 6-(2,4-dimethylphenyl)-2-(5-methoxypyrimidin-2-yl)-5,6,7,8-tetrahydrophthalazin-1(2H)-one], the IC50 was < 500 nM. For `CC(=O)Nc1cnc(-n2ncc3c(c2=O)CCC(c2ccc(C)cc2C)C3)nc1` (single isomer, unassigned; (+)) [Example 137, (+)-N-(2-(6-(2,4-dimethylphenyl)-1-oxo-5,6,7,8-tetrahydrophthalazin-2(1H)-yl)pyrimidin-5-yl)acetamide], the IC50 was < 500 nM. In the case of `COc1ccc(Cl)c(C2CCc3c(cnn(-c4ncccn4)c3=O)C2)c1` (centres unmarked) [Example 75, 6-(2-chloro-5-methoxyphenyl)-2-(pyrimidin-2-yl)-5,6,7,8-tetrahydrophthalazin-1(2H)-one], the IC50 is reported as < 500 nM. Work on `Cc1ccc(C2CCc3c(cnn(-c4nccs4)c3=O)C2)c(C)c1` (centres unmarked) [Example 32, 6-(2,4-dimethylphenyl)-2-(thiazol-2-yl)-5,6,7,8-tetrahydrophthalazin-1(2H)-one] yielded an IC50 of 500 to 1000 nM. `Cc1ccc(C2CCc3c(cnn(-c4ccc(Cl)cn4)c3=O)C2)c(C)c1` (centres unmarked) [Example 6, 6-(2,4-dimethylphenyl)-2-(5-chlororopyridin-2-yl)-5,6,7,8-tetrahydro-phthalazin-1(2H)-one] was tested, and the IC50 was < 500 nM. `Cc1c(OCC2CC2)cccc1C1CCc2c(cnn(-c3ncccn3)c2=O)C1` (centres unmarked) [Example 102, 6-(3-(cyclopropylmethoxy)-2-methylphenyl)-2-(pyrimidin-2-yl)-5,6,7,8-tetrahydrophthalazin-1(2H)-one] gave an IC50 of 500 to 1000 nM. With `Cc1ccc2c(cnn2C)c1C1CCc2c(cnn(-c3ncccn3)c2=O)C1` (centres unmarked) [Example 88, 6-(1,5-dimethyl-1H-indazol-4-yl)-2-(pyrimidin-2-yl)-5,6,7,8-tetrahydrophthalazin-1(2H)-one] the IC50 was 1000 to 30000 nM. `Cc1ccc(C2CCc3c(cnn(-c4ncc(Cl)cn4)c3=O)C2)c(C)c1` (centres unmarked) [Example 51, 2-(5-chloropyrimidin-2-yl)-6-(2,4-dimethylphenyl)-5,6,7,8-tetrahydrophthalazin-1(2H)-one] was tested, and the IC50 was < 500 nM. `Cc1ccc(C2CCc3c(cnn(-c4ncc(F)cn4)c3=O)C2)c(C)c1` (centres unmarked) [Example 54, 6-(2,4-dimethylphenyl)-2-(5-fluoropyrimidin-2-yl)-5,6,7,8-tetrahydrophthalazin-1(2H)-one] was tested, and the IC50 was < 500 nM. `CN1CCc2c(C3CCc4c(cnn(-c5ccccn5)c4=O)C3)cccc21` (centres unmarked) [Example 69, 6-(1-methylindolin-4-yl)-2-(pyridin-2-yl)-5,6,7,8-tetrahydrophthalazin-1(2H)-one] was tested, and the IC50 was < 500 nM. `Cc1c(OC2CC2)cccc1C1CCc2c(cnn(-c3ncccn3)c2=O)C1` (single isomer, unassigned; (+)) [Example 129, (+)-6-(3-cyclopropoxy-2-methylphenyl)-2-(pyrimidin-2-yl)-5,6,7,8-tetrahydrophthalazin-1(2H)-one] was tested, and the IC50 was 500 to 1000 nM. For `CCOc1cccc(C2CCc3c(cnn(-c4ncccn4)c3=O)C2)c1C` (centres unmarked) [Example 101, 6-(3-ethoxy-2-methylphenyl)-2-(pyrimidin-2-yl)-5,6,7,8-tetrahydrophthalazin-1(2H)-one], the IC50 was < 500 nM. For `COc1cnc(-n2ncc3c(c2=O)CCC(c2cc(OC)ccc2C)C3)nc1` (centres unmarked) [Example 48, 6-(5-methoxy-2-methylphenyl)-2-(5-methoxypyrimidin-2-yl)-5,6,7,8-tetrahydrophthalazin-1(2H)-one], the IC50 was 500 to 1000 nM. In the case of `Cc1ccc(C2CCc3c(cnn(-c4cc(C#N)ccn4)c3=O)C2)c(C)c1` (centres unmarked) [Example 23, 2-(6-(2,4-dimethylphenyl)-1-oxo-5,6,7,8-tetrahydrophthalazin-2(1H)-yl)isonicotinonitrile], the IC50 is reported as < 500 nM. For `Cc1cnc(-n2ncc3c(c2=O)CCC(c2cccc(OC4CC4)c2C)C3)nc1` (single isomer, unassigned; (+)) [Example 133, (+)-6-(3-cyclopropoxy-2-methylphenyl)-2-(5-methylpyrimidin-2-yl)-5,6,7,8-tetrahydrophthalazin-1(2H)-one], the IC50 was 1000 to 30000 nM. In the case of `CC(=O)Nc1cnc(-n2ncc3c(c2=O)CCC(c2cccc(OC4CC4)c2C)C3)nc1` (centres unmarked) [Example 127, N-(2-(6-(3-cyclopropoxy-2-methylphenyl)-1-oxo-5,6,7,8-tetrahydrophthalazin-2(1H)-yl)pyrimidin-5-yl)acetamide], the IC50 is reported as < 500 nM. For `CN(C)c1cccc(C2CCc3c(cnn(-c4ccccn4)c3=O)C2)c1` (centres unmarked) [Example 59, 6-(3-(dimethylamino)phenyl)-2-(pyridin-2-yl)-5,6,7,8-tetrahydrophthalazin-1(2H)-one], the IC50 was < 500 nM. In the case of `Cc1cnc(-n2ncc3c(c2=O)CCC(c2ccc(C)cc2C)C3)nc1` (centres unmarked) [Example 52, 6-(2,4-dimethylphenyl)-2-(5-methylpyrimidin-2-yl)-5,6,7,8-tetrahydrophthalazin-1(2H)-one], the IC50 is reported as < 500 nM. `COCCOc1cccc(C2CCc3c(cnn(-c4ncccn4)c3=O)C2)c1C` (centres unmarked) [Example 105, 6-(3-(2-methoxyethoxy)-2-methylphenyl)-2-(pyrimidin-2-yl)-5,6,7,8-tetrahydrophthalazin-1(2H)-one] was tested, and the IC50 was 1000 to 30000 nM. For `O=c1c2c(cnn1-c1ncccn1)CC(c1cccc3c1CCN3C1CC1)CC2` (centres unmarked) [Example 92, 6-(1-cyclopropylindolin-4-yl)-2-(pyrimidin-2-yl)-5,6,7,8-tetrahydrophthalazin-1(2H)-one], the IC50 was < 500 nM. `Cc1ccc(C2CCc3c(cnn(-c4ccc(N5CCOCC5)cn4)c3=O)C2)c(C)c1` (centres unmarked) [Example 114, 6-(2,4-dimethylphenyl)-2-(5-morpholinopyridin-2-yl)-5,6,7,8-tetrahydrophthalazin-1(2H)-one] was tested, and the IC50 was < 500 nM. In the case of `COc1cccc(C2CCc3c(cnn(-c4ncccn4)c3=O)C2)c1Cl` (centres unmarked) [Example 72, 6-(2-chloro-3-methoxyphenyl)-2-(pyrimidin-2-yl)-5,6,7,8-tetrahydrophthalazin-1(2H)-one], the IC50 is reported as < 500 nM. In the case of `Cc1ccc(C2CCc3c(cnn(-c4ncccn4)c3=O)C2)c(C)c1` (centres unmarked) [Example 29, 6-(2,4-dimethylphenyl)-2-(pyrimidin-2-yl)-5,6,7,8-tetrahydrophthalazin-1(2H)-one], the IC50 is reported as < 500 nM. `COc1cc(C2CCc3c(cnn(-c4ncccn4)c3=O)C2)c(C)cc1C` (centres unmarked) [Example 97, 6-(5-methoxy-2,4-dimethylphenyl)-2-(pyrimidin-2-yl)-5,6,7,8-tetrahydrophthalazin-1(2H)-one] was tested, and the IC50 was < 500 nM. `Cc1ccc(C2Cc3cnn(-c4ccccn4)c(=O)c3C2)c(C)c1` (centres unmarked) [Example 121, 6-(2,4-dimethylphenyl)-2-(pyridin-2-yl)-2,5,6,7-tetrahydro-1H-cyclopenta[d]-pyridazin-1-one] gave an IC50 of 1000 to 30000 nM. For `Cc1ccc(C2CCc3c(cnn(-c4ncc(N5CCOCC5)cn4)c3=O)C2)c(C)c1` (centres unmarked) [Example 115, 6-(2,4-dimethylphenyl)-2-(5-morpholinopyrimidin-2-yl)-5,6,7,8-tetrahydrophthalazin-1(2H)-one], the IC50 was < 500 nM. For `Cc1ccc(C2CCc3c(ncn(-c4ccccn4)c3=O)C2)c(C)c1` (centres unmarked) [Example 122, 7-(2,4-dimethylphenyl)-3-(pyridin-2-yl)-5,6,7,8-tetrahydroquinazolin-4(3H)-one], the IC50 was < 500 nM. `COc1cc(C)ccc1C1CCc2c(cnn(-c3ccccn3)c2=O)C1` (centres unmarked) [Example 67, 6-(2-methoxy-4-methylphenyl)-2-(pyridin-2-yl)-5,6,7,8-tetrahydrophthalazin-1(2H)-one] was tested, and the IC50 was 500 to 1000 nM.
